Values of other authors, collected in PMC6966182 (CPT: Pharmacometrics & Systems Pharmacology, 2019).
Where two headings read alike, the source gives them in different places. Values belong to the compound of their own block, whether it stands above or below them.

Tests used:
HIV = conditions: TFV‐DP concentration in PBMC
OAT3 = conditions: read-out: OAT3 Transporter (K i) (renal); SimCYP input
[1] = not given; remark: listed apart in the source
[2] = not given; remark: listed apart in the source
[3] = absorption rate constant, SimCYP input
PBMC = conditions: SimCYP input
[4] = not given; remark: listed apart in the source
[5] = not given; remark: listed apart in the source
[6] = SD TFV + PRO, healthy volunteers, GM (95% confidence interval)
[7] = SD TFV–PRO, healthy volunteers, GM (95% confidence interval)

increase at the intracellular level with PRO (at 24 hours): ~ 30% | accumulation of TFV‐DP in PBMCs (daily TDF administration): greater than eightfold | EC90 (HIV): 16 fmol/10^6 cells
Structure (SMILES): CC(Cn1cnc2c(N)ncnc21)OCP(=O)(O)OP(=O)(O)OP(=O)(O)O (stereo in doubt) [TFV‐DP, tenofovir di‐phosphate]

Structure (SMILES): CCCN(CCC)S(=O)(=O)c1ccc(C(=O)O)cc1 [PRO, probenecid]
Ki (OAT3): […] | maximum tolerated dose [1]: 2 g

fraction unbound (f u) [2]: > 0.9 | k a [3]: 1.03 1/h11 | Efflux Clint,t (PBMC additional organ) (PBMC): 1.288 µL/minute11, 12 | AUC0‐INF OBS [4, 6]: 6,349 (5,598–7,200) ng • hour/mL | Cmax OBS [4, 6]: 538 (494–585) ng/mL | AUC0‐INF OBS [4, 7]: 3,973 (3,576–4,415) ng • hour/mL | CLr OBS [4, 7]: 15.4 (12.2–19.4) L/hour | Cmax OBS [4, 7]: 529 (451–620) ng/mL | increase in single‐dose TFV overall plasma exposure (AUC0‐INF) ([4]; in the presence of 2 g PRO, fasted healthy volunteers, as predicted): 60% | change in TFV Cmax ([4]; in the presence of 2 g PRO, single dose, as predicted): nearly unchanged | TFV in circulation available for transporter‐mediated secretion [5]: 20–30% | bioavailability [5]: ~ 25% | increase in TFV systemic exposure with food ([5]; TDF given with high‐fat or light meals, ref Other studies): ~ 35%
Structure (SMILES): C[C@H](Cn1cnc2c(N)ncnc21)OCP(=O)(O)O [TFV, tenofovir]
Uptake J max (PBMC additional organ) (PBMC): 10.44 pmol/minute/whole organ11, 12 | Uptake K m (PBMC additional organ) (PBMC): 0.355 µM11, 12
